# According to patent publication US20030134859A1 (SANKYO COMPANY, LIMITED, priority 2000, published 2003):
# Assays:
# [1] = system: Mouse preadipocyte strain 3T3-L1; experiment: Inhibition of differentiation as an indication of acetic acid uptake; assay type: cell-based; conditions: control (0.01% dimethylsulfoxide) = 100%; for activity at 0.1 µM: Mus musculus, 3T3-L1, 0.1 μM test substance, read-out: Rate of Uptake (%) of [2-14C] acetic acid
# Outline: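 Differentiation is indexed by 1 hr [2-14C]acetic acid incorporation, measured by scintillation counting and given as uptake relative to 0.01% DMSO control (100%). Mouse 3T3-L1 preadipocytes, pre-grown 10 days, received 0.1 μM test substance throughout a 4-day insulin/IBMX/dexamethasone induction, followed by 2 days' maintenance culture.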
# Rat white adipocytes = experiment: Stimulation of differentiation of the adipocytes (Oil Red O); assay type: cell-based; conditions: 100 nM test compound, 5 days, Oil Red O ABS550, control = 100%, blank = 0%, Table 7; for activity at 0.1 µM: Rattus norvegicus, Adipocyte, 120 h, read-out: Rate of Differentiation (%)
# Outline: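 Oil Red O lipid staining, absorbance 550 nm after DMSO extraction, quantified differentiation of rat white adipocytes exposed 5 days to compound (final 100 nM, 0.1% DMSO) in differentiation medium. Percent differentiation normalised between cell-free blank (0%) and DMSO control (100%).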
# [2] = system: human colon cancer cells COL-2-JCK; experiment: Inhibition of colony forming activity in human colon cancer cells; assay type: cell-based; conditions: Homo sapiens, 240 h; 1 μM test compound; 10 days; sum of colony areas vs control; read-out: Inhibition Rate (%) against the colony forming activity
# Experimental: For the medium to culture the human colon cancer cells, D-MEM/F-12 medium containing inactivated bovine fetal serum at a concentration of 10% (GIBCO) was used. The human colon cancer cells COL-2-JCK (purchased from Institute for Experimental Animals) grown in mass formation in a plastic dish for the cell culture with an inner diameter of 100 mm were stripped off from the dish by using EDTA (ethylenediaminetetraacetic acid) and 0.05% trypsin solution. Then, a cell dilution solution was prepared at a concentration of 100 cells/mL solution which was diluted with the medium (D-MEM/F-12).
# Three (3) mL of the cell solution were inoculated in each well of a 6-well plastic plate (300 cells/well). The test compound that was dissolved in DMSO solution so as to be a final concentration of 1 μM of the test compound and that of DMSO solution of 0.1% was added to each well. DMSO solution alone was added into the well for the control so as to be a final concentration of 0.1%.
# The cells in each well were cultured for 10 days at 37° C. in the presence of 5% CO2. After the culturing was finalised, each well was washed once with Dulbecco-phosphate-buffer-saline solution (bivalent anion). Then, 1.5 ml of neutral buffered formalin solution containing 0.02% crystal violet was added to each well and the plate was kept stationary for 5 min for fixation and staining the cells. After fixation and staining, the cells were washed with water and were air-dried. Then the sum of the colony area (mm^2) of the stained cancer cells was calculated by using an image analyzer PCA-11 (SystemScience). From the calculated values, the inhibition rate (%) of the compound against the colony forming activity was obtained based on the following equation.
# Inhibition Rate (%) against the colony forming activity=(1−A/B)×100
# A: Sum of Colony Areas in the Group Treated with 1 μM of the Test Compound
# B: Sum of Colony Areas in the Control Group
# TNF-α production = experiment: Inhibitory activity against cytokine (TNF-α) production in LPS-stimulated RAW264.7 cells; assay type: cell-based, mouse; conditions: Mus musculus, RAW264.7, 15 h, 1 μM test compound, LPS 10 ng/mL
# Experimental: The mouse monocyte/macrophage cell line, RAW264.7 (ATCC TIB71) was purchased from Dainippon Pharmaceutical Co., Ltd. The RAW264.7 cells were cultured in a CO2 incubator (37° C., 95% of humidity, 5% of CO2) by using the Dulbecco's modified Eagle's medium (DMEM medium; GIBCO, Cat. No. 11995-040) containing bovine fetal serum (the final concentration: 10% (v/v), MOREGATE, lot No. 474030), penicillin G (the final concentration: 50 units/mL […], GIBCO) and streptomycin (the final concentration: 20 μg/mL, GIBCO).
# Sixty (60) μL of the RAW264.7 cell suspension (83,000 cells/mL) were plated into each well of a 96-well microplate (5,000 cells/well). After the cells were cultured for 4 hr in a CO2 incubator, 40 μL of DMEM medium containing 25 ng/mL of LPS (Sigma-Aldrich Japan K. K.) were added into each well (final concentration of LPS: 10 ng/mL). The test compound dissolved in DMSO at a concentration of 1 mM was diluted with DMEM medium by 20 times. Then 2 μL/well of the diluted solution were added to wells containing the plated cells (final concentration of the test compound: 1 μM). As the control, 2 μL/well of DMSO diluted with DMEM medium by 20 times were added to wells containing the plated cells either with LPS (final concentration: 10 ng/mL) or without LPS. After these cells were cultured in a CO2 incubator for 15 hr, the supernatant of the medium was recovered. The amount of mTNF-α in the medium supernatant was determined with a mouse TNF-α ELISA kit Quantikine M (R&D System), according to the experiment protocol attached with the kit.
# The inhibitory activity of the test compound against TNF-α production was calculated according to the following equation.
# A: The amount of TNF-α in the presence of test compound
# B: The amount of TNF-α in the control without LPS
# C: The amount of TNF-α in the control with 10 ng/mL of LPS
# Inhibitory Activity of the Test Compound against TNF-α Production (%)=100−(A−B)/(C−B)×100
Structure (SMILES),activity at 0.1 µM [1],activity at 0.1 µM (Rat white adipocytes),inhibition at 1 µM [2],inhibition at 1 µM (TNF-α production),Rate of Uptake (%) of [2-14C] acetic acid ([1]; 0.1 μM test substance),Rate of Differentiation (%) (Rat white adipocytes)
"CCCCOc1ccc(NC(=O)c2cc([N+](=O)[O-])ccc2Cl)cc1 [Example 17, N-(4-Butyloxyphenyl)-(2-chloro-5-nitrophenyl)carboxamide]",91.9%,114%,30%,–,–,–
"O=C(Nc1nc2ccccc2s1)c1cc([N+](=O)[O-])ccc1Cl [Example 33, N-(Benzothiazol-2-yl)-(2-chloro-5-nitrophenyl)carboxamide]",86.1%,127%,60%,–,–,–
"O=C(Nc1cccc2ncccc12)c1cc([N+](=O)[O-])ccc1Cl [Example 56, N-(5-Quinolinyl)-(2-chloro-5-nitrophenyl)carboxamide]",32.4%,114%,6%,–,–,–
"COc1ccc2nc(NC(=O)c3cc([N+](=O)[O-])ccc3Cl)sc2c1 [Example 67, N-(6-Methoxybenzothiazol-2-yl)-(2-chloro-5-nitrophenyl)carboxamide]",70.2%,–,31%,23.2%,–,–
"O=C(Nc1nc2c(Cl)cccc2s1)c1cc([N+](=O)[O-])ccc1Cl [Example 69, N-(4-Chlorobenzothiazol-2-yl)-(2-chloro-5-nitrophenyl)carboxamide]",57%,135%,84%,–,–,–
"O=C(Nc1cc(-c2ccccc2)[nH]n1)c1cc([N+](=O)[O-])ccc1Cl [Example 72, N-(5-Phenylpyrazol-3-yl)-(2-chloro-5-nitrophenyl)carboxamide]",76.7%,124%,39%,–,–,–
"O=C(Nc1ccc(S(=O)(=O)Nc2ncccn2)cc1)c1cc([N+](=O)[O-])ccc1Cl [Example 95, N-[4-[(Pyrimidin-2-yl)aminosulfonyl]phenyl]-(2-chloro-5-nitrophenyl)carboxamide]",86.3%,115%,1%,–,–,–
"Cl.O=C(Nc1ccc(-c2ccccn2)cc1)c1cc([N+](=O)[O-])ccc1Cl [Example 147, N-[4-(Pyridin-2-yl)phenyl]-(2-chloro-5-nitrophenyl)carboxamide Hydrochloride]",–,–,19%,–,76.2%,115.5%
